{"source": "patent US20230167142A1", "about": "“METHODS FOR THE MONO-AMIDATION OF PHOSPHATES AND PHOSPHONATES” (Board of Regents, The University of Texas System, priority 2020, published 2023)", "format_in_all_cases": "cell-based", "key": {"[1]": {"test_system": "ENO1-rescued (D423 ENO1) glioma cells", "assay": "cells", "conditions": "for activity in cell proliferation assay (FIG. 1): 5 days", "protocol": "(§1) FIGS. 1A, 1B, 1C, and 1D show cell proliferation assays for enolase inhibitors HEX (1A), FLM37 (1B), CDP18 (1C), and VCY32 (1D) against (i) ENO1-deleted (D423), (ii) ENO1-rescued (D423 ENO1), and (iii) ENO1-wildtype (LN319) glioma cells. Cells were incubated with pro-drug inhibitor for 5 days. Then, cells were fixed and stained with crystal violet and quantified spectroscopically. Numerical labels indicate concentration of enolase inhibitor in nM.\n(§2) FIGS. 2A, 2B, and 2C show plots of relative cell density (vertical axis) against concentration (horizontal axis, nM) of enolase inhibitors FLM37 (2A), CDP18 (2B), and VCY32 (2C) for (i) ENO1-deleted (D423), (ii) ENO1-rescued (D423 ENO1), and (iii) ENO1-wildtype (LN319) glioma cells.\n(§3) See, Leonard et al. (2016) Nat. Chem. Biol. 12:1053-1058 and Satani et al. (2016) PLos One, 11:e0168739, each of which is incorporated by reference for all purposes. Then, cells were fixed and stained with crystal violet and quantified spectroscopically. Cell density as measured by crystal violet were plotted as a function of inhibitor.\n(§4) FIGS. 1A, 1B, 1C, and 1D show representative cell proliferation assays for the compounds HEX (1A), FLM37 (1B), CDP18 (1C), and VCY32 (1D). For each compound, assays are run against (i) ENO1-deleted (D423), (ii) ENO1-rescued (D423 ENO1), and (iii) ENO1-wildtype (LN319) glioma cells."}, "[2]": {"test_system": "ENO1-deleted (D423) glioma cells", "assay": "Crystal violet cell proliferation assay, ENO1-deleted D423 cells", "conditions": "for IC50: Glioma cell", "protocol": "as §1, §2\n(§5) Numerical labels indicate concentration of enolase inhibitor in nM.\nas §3, §4"}, "[3]": {"test_system": "ENO1-wildtype (LN319) glioma cells", "assay": "Crystal violet cell proliferation assay, ENO1-wildtype LN319 cells", "conditions": "for activity in cell proliferation assay (FIG. 1): 5 days", "protocol": "as §1, §2, §5, §3, §4"}, "[4]": {"conditions": "Glioma cell, table of Formula V compounds, R6 = POM, read-out: IC50, D423 EN01 (ENO1 +/+)"}, "[5]": {"conditions": "ENO1-deleted (D423), read-out: IC50,D423 (ENO1−/−)"}, "[6]": {"conditions": "LN-319, ENO1-wildtype (LN319), read-out: IC50, LN319 (ENO1+/+)"}, "[7]": {"conditions": "Glioma cell, footnote, experiment with VCY32, read-out: IC50 in reference to respective POMHEX control"}, "[8]": {"conditions": "table of Formula V compounds, R6 = POM, read-out: IC50, D423 EN01 (ENO1 +/+)"}}, "note": "Like-named read-outs stand apart in the source and are kept apart here.", "data": [{"compound": "CC(C)(C)C(=O)OCOP(=O)(NCc1cccc(F)c1)C1CCCN(O)C1=O", "note": "(stereo not drawn) [CDP12, ((((3-fluorobenzyl)amino)(1-hydroxy-2-oxopiperidin-3-yl)phosphoryl)oxy)methyl pivalate]", "values": [{"measurement": "IC50", "setting": "[1]; [4]", "result": 103, "unit": "nM"}]}, {"compound": "CN(C)P(=O)(OCOC(=O)C(C)(C)C)C1CCCN(O)C1=O", "note": "(stereo not drawn) [CDP21, (((dimethylamino)(1-hydroxy-2-oxopiperidin-3-yl)phosphoryl)oxy)methyl pivalate]", "values": [{"measurement": "selectivity for ENO1-deleted cells", "setting": "[2]", "result": "selective for ENO1-deleted cells"}, {"measurement": "IC50", "setting": "[2]; 120 h", "result": 108, "unit": "nM"}, {"measurement": "IC50", "setting": "[2]; read-out: IC50,D423 (ENO1−/−)", "result": 108, "unit": "nM"}, {"measurement": "IC50", "setting": "[1]; Glioma cell, read-out: IC50, D423 EN01 (ENO1 +/+)", "result": 115, "unit": "nM"}, {"measurement": "IC50", "setting": "[1]; Glioma cell, read-out: IC50,D423 ENO1 (ENO1+/+)", "result": 2170, "unit": "nM"}, {"measurement": "IC50", "setting": "[3]; LN-319, read-out: IC50, LN319 (ENO1+/+)", "result": 5060, "unit": "nM"}]}, {"compound": "CCCCCCCCCCCCNP(=O)(O)C1CCCN(O)C1=O", "note": "(stereo not drawn) [CDP22, N-dodecyl-P-(1-hydroxy-2-oxopiperidin-3-yl)phosphonamidic acid]", "values": [{"measurement": "level of inhibition of ENO1-deleted (D423) cells (FIG. 3), in words", "setting": "[2]; ENO1-deleted (D423)", "result": "sub-micromolar levels"}, {"measurement": "IC50", "setting": "[2]; [5]", "result": 58, "unit": "nM"}, {"measurement": "inhibition / activity in ENO1-wildtype (LN319) cells (FIG. 3)", "setting": "[3]; ENO1-wildtype (LN319)", "result": "shows activity"}, {"measurement": "IC50", "setting": "[3]; [6]", "result": 844, "unit": "nM"}, {"measurement": "IC50", "setting": "[3]; LN-319, text b400, read-out: IC50 values for ENO1-wildtype (LN319) glioma cells (i) (FIGS. 4A, 4B)", "result": 24, "unit": "nM"}]}, {"compound": "CNP(=O)(OCOC(=O)C(C)(C)C)C1CCCN(O)C1=O", "note": "(stereo not drawn) [CDP23, (((1-hydroxy-2-oxopiperidin-3-yl)(methylamino)phosphoryl)oxy)methyl pivalate]", "values": [{"measurement": "greater potency compared to CDP21", "setting": "[2]", "result": "more than 2.5 fold"}, {"measurement": "IC50", "setting": "[2]; 120 h, D423 cells, 5 days incubation, crystal violet, read-out: IC50", "result": 40, "unit": "nM"}, {"measurement": "IC50", "setting": "[2]; [5]", "result": 40, "unit": "nM"}, {"measurement": "selectivity for ENO1-deleted cells", "setting": "[2]; crystal violet cell proliferation assay, 5 days", "result": "selective for ENO1-deleted cells"}, {"measurement": "IC50", "setting": "[1]; Glioma cell, ENO1-rescued (D423 ENO1), read-out: IC50,D423 ENO1 (ENO1+/+)", "result": 790, "unit": "nM"}, {"measurement": "IC50", "setting": "[1]; [4]", "result": 62.6, "unit": "nM"}, {"measurement": "IC50", "setting": "[3]; [6]", "result": 1500, "unit": "nM"}]}, {"compound": "CC(C)(C)C(=O)OCOP(=O)(NCc1ccccc1)C1CCCN(O)C1=O", "note": "(stereo not drawn) [FLM37, (((benzylamino)(1-hydroxy-2-oxopiperidin-3-yl)phosphoryl)oxy)methyl pivalate]", "values": [{"measurement": "activity in cell proliferation assay (FIG. 1)", "setting": "[2]; ENO1-deleted (D423), 5 days", "result": "activity at the micromolar range or better"}, {"measurement": "activity in cell proliferation assay (FIG. 1)", "setting": "[1]; ENO1-rescued (D423 ENO1)", "result": "activity at the micromolar range or better"}, {"measurement": "IC50", "setting": "[1]; [4]", "result": 244, "unit": "nM"}, {"measurement": "activity in cell proliferation assay (FIG. 1)", "setting": "[3]; ENO1-wildtype (LN319)", "result": "activity at the micromolar range or better"}]}, {"compound": "CC(C)(C)C(=O)OCOP(=O)(NCc1ccccn1)C1CCCN(O)C1=O", "note": "(stereo not drawn) [KY9, (((1-hydroxy-2-oxopiperidin-3-yl){(pyridin-2-ylmethyl)amino)phosphoryl)oxy)methyl pivalate]", "values": [{"measurement": "IC50", "setting": "[1]; [4]", "result": 96.2, "unit": "nM"}]}, {"compound": "CC(C)(C)C(=O)OCOP(=O)(OCOC(=O)C(C)(C)C)C1CCCN(O)C1=O", "note": "(stereo not drawn) [POMHEX, (((1-hydroxy-2-oxopiperidin-3-yl)phosphoryl)bis(oxy))bis(methylene) bis(2,2-dimethylpropanoate), reference compound]", "values": [{"measurement": "IC50", "setting": "[1]; [7]", "result": 41.5, "unit": "nM"}, {"measurement": "IC50", "setting": "[1]; Glioma cell, footnote, experiment with VCY34, read-out: IC50 in reference to respective POMHEX control", "result": 217, "unit": "nM"}, {"measurement": "IC50", "setting": "[1]; [4]", "result": 17.3, "unit": "nM"}]}, {"compound": "CC(C)(C)C(=O)OCOP(=O)(NCc1ccc(F)cc1)C1CCCN(O)C1=O", "note": "(stereo not drawn) [VCY19, ((((4-fluorobenzyl)amino)(1-hydroxy-2-oxopiperidin-3-yl)phosphoryl)oxy)methyl pivalate]", "values": [{"measurement": "IC50", "setting": "[1]; [4]", "result": 129, "unit": "nM"}]}, {"compound": "CC(C)(C)C(=O)OCOP(=O)(NCC1CC1)C1CCCN(O)C1=O", "note": "(stereo not drawn) [VCY32, ((((Cyclopropylmethyl)amino)(1-hydroxy-2-oxopiperidin-3-yl)phosphoryl)oxy)methyl pivalate]", "values": [{"measurement": "activity in cell proliferation assay (FIG. 1)", "setting": "[2]; ENO1-deleted (D423), 5 days", "result": "activity at the micromolar range or better"}, {"measurement": "activity in cell proliferation assay (FIG. 1)", "setting": "[1]; ENO1-rescued (D423 ENO1)", "result": "activity at the micromolar range or better"}, {"measurement": "IC50", "setting": "[1]; [7]", "result": 22, "unit": "nM"}, {"measurement": "IC50", "setting": "[1]; [4]", "result": 22, "unit": "nM"}, {"measurement": "activity in cell proliferation assay (FIG. 1)", "setting": "[3]; ENO1-wildtype (LN319)", "result": "activity at the micromolar range or better"}]}, {"compound": "((((2,4-difluorobenzyi)amino)(1-hydrnxy-2-oxopiperidin-3-yl)phosphoryl)oxy)methyl pivalate [CDP14]", "values": [{"measurement": "IC50", "setting": "[1]; [8]", "result": 80.3, "unit": "nM"}]}, {"compound": "((((3,4-difluornhenzyl)amino)(1-hydro:xy-2-oxopiperidin-3-yl)phosphoryl)oxy)methyl pivalate [CDP13]", "values": [{"measurement": "IC50", "setting": "[1]; [8]", "result": 84.6, "unit": "nM"}]}, {"compound": "((((Cyclohexylmethyl)amino)(1-hydro:xy-2-oxopiperidin-3-yl)phosphoryl)oxy)methyl pivalate [CDP18]", "values": [{"measurement": "activity in cell proliferation assay (FIG. 1)", "setting": "[2]; ENO1-deleted (D423), 5 days", "result": "activity at the micromolar range or better"}, {"measurement": "activity in cell proliferation assay (FIG. 1)", "setting": "[1]; ENO1-rescued (D423 ENO1)", "result": "activity at the micromolar range or better"}, {"measurement": "IC50", "setting": "[1]; [8]", "result": 81.1, "unit": "nM"}, {"measurement": "activity in cell proliferation assay (FIG. 1)", "setting": "[3]; ENO1-wildtype (LN319)", "result": "activity at the micromolar range or better"}]}]}
